Laboratory results: EP0400686A1, “2-Amino-9-[1,3bis-(isopropoxy)-propyl-2-oxymethyl]-purine, its utilization and medicaments containing it” (HOECHST AKTIENGESELLSCHAFT, priority 1985, dated 1987)

Tested on: Herpes simplex Typ 1
Assay: In vivo test: NMRI mice infected intraperitoneally with Herpes simplex type 1, treated i.p. twice daily for 5 days, survival rate
Settings: Herpes simplex Typ 1 an der NMRI-Maus
Description: NMRI-Mäuse, spezifisch pathogenfrei, im Gewicht von etwa 15 g wurden intraperitoneal mit Herpes simplex Typ 1 infiziert und anschließend mit den beschriebenen Verbindungen intraperitoneal therapiert. Als Vergleich diente stets Acyclovir (ACV). Die Behandlung erfolgte zweimal täglich über 5 Tage, beginnend nach der Infektion. Der Behandlungserfolg wurde anhand des Krankheitsverlaufes und der Überlebensrate gegenüber den unbehandelten Infektionskontrollen bestimmt. Letztere erhielten anstelle der zu prüfenden Verbindungen eine wasserlösliche Methylhydroxyäthylcellulose (Viskosität […] in 2 %iger Lösung) (^(R)Tylose MH 300 P) appliziert.
Die chemaotherapeutische Wirkung erfindungsgemäßer Verbindungen ist aus Tabelle 1 ersichtlich.

[1] = Dosierung 10 x 0,2 mg/Maus i.p.
[2] = Dosierung 10 x 0,6 mg/Maus i.p.

SMILES | Mittlere Überlebensrate x/10 [1] | Mittlere Überlebensrate x/10 [2]
CC(=O)OCC(CN=[N+]=[N-])OCn1cnc2c(=O)[nH]c(N)nc21 (racemic) [Verbindung 9, 9-(1-Azidomethyl-2-acetoxyäthoxymethyl)-guanin] | 9/10 | 9/10
CC(=O)OCC(COC(C)C)OCn1cnc2c(=O)[nH]c(N)nc21 (racemic) [Verbindung 20, 9-(1-Isopropoxymethyl-2-acetoxyäthoxymethyl)-guanin] | 10/10 | 10/10
